Columns and labels:
[1] = molecular target: T1, Endothelin receptor type B (Rattus norvegicus, UniProt P21451); assay: Concentration required to produce 50% inhibition of binding against ET B receptor obtained from rat brain membrane
T1 sequence (P21451 whole entry): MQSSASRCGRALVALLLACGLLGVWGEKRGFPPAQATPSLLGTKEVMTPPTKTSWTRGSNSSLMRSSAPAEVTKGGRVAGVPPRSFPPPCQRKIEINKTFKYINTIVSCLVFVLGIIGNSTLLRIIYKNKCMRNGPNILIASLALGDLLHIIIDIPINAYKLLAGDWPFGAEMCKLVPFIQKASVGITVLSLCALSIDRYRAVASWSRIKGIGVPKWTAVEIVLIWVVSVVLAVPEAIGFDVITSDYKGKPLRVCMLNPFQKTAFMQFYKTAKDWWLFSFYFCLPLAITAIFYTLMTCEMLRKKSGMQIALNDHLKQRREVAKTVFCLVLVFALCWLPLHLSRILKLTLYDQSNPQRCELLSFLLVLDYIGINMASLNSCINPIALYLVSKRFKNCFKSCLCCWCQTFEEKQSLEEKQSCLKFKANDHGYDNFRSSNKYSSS

Endothelin-1 receptor = molecular target: T2, Endothelin-1 receptor (Rattus norvegicus, UniProt P26684); assay: Concentration required to produce 50% inhibition of binding against ET A receptor obtained from rat thoracic aortic membrane
T2 sequence (P26684 whole entry): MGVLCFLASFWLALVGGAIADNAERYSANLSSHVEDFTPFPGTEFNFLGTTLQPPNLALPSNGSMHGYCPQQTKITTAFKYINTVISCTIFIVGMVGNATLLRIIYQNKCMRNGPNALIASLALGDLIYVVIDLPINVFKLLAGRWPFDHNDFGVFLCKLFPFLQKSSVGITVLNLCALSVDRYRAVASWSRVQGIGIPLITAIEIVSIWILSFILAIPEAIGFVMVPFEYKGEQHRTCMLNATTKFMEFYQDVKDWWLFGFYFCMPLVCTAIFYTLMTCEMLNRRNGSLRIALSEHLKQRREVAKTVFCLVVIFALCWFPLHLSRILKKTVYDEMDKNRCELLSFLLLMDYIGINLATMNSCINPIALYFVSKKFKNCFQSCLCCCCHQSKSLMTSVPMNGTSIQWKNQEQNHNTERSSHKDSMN

Compound	pIC50 [1]	pIC50 (Endothelin-1 receptor)
CCC[C@@H](NC(=O)[C@@H](NC(=O)[C@H](CC(=O)O)NC(=O)[C@H](CC(C)C)NC(=O)[C@H](Cc1cnc[nH]1)NC(=O)[C@H](CS)NC(=O)[C@H](Cc1ccccc1)NC(=O)[C@H](Cc1ccc(O)cc1)NC(=O)[C@@H](NC(=O)[C@H](CS)NC(=O)[C@H](CCC(=O)O)NC(=O)[C@H](CCCCN)NC(=O)[C@H](CC(=O)O)NC(=O)[C@H](CCSC)NC(=O)[C@H](CC(C)C)NC(=O)[C@H](CO)NC(=O)[C@H](CO)NC(=O)[C@H](CS)NC(=O)[C@H](CO)NC(=O)[C@@H](N)CS)C(C)C)[C@H](C)CC)C(=O)N[C@@H](Cc1c[nH]c2ccccc12)C(=O)O [Endothelin-1 analogue]	10	7.6
CC[C@@H](C)[C@H](NC(=O)[C@H](CC(=O)O)NC(=O)[C@H](CC(C)C)NC(=O)[C@H](Cc1cnc[nH]1)NC(=O)[C@H](CS)NC(=O)[C@H](Cc1ccccc1)NC(=O)[C@H](Cc1ccc(O)cc1)NC(=O)[C@@H](NC(=O)[C@H](CS)NC(=O)[C@H](CCC(=O)O)NC(=O)[C@H](CCCCN)NC(=O)[C@H](CC(=O)O)NC(=O)[C@H](CCSC)NC(=O)[C@H](CC(C)C)NC(=O)[C@H](CO)NC(=O)[C@H](CO)NC(=O)[C@H](CS)NC(=O)[C@H](CO)NC(=O)[C@@H](N)CS)C(C)C)C(=O)N[C@H](Cc1ccccc1)C(=O)N[C@@H](Cc1c[nH]c2ccccc12)C(=O)O [Endothelin-1 analogue]	8.6	6.07
CC[C@H](C)[C@H](NC(=O)[C@H](CC(=O)O)NC(=O)[C@H](CC(C)C)NC(=O)[C@H](Cc1cnc[nH]1)NC(=O)[C@H](CS)NC(=O)[C@H](Cc1ccccc1)NC(=O)[C@H](Cc1ccc(O)cc1)NC(=O)[C@@H](NC(=O)[C@H](CS)NC(=O)[C@H](CCC(=O)O)NC(=O)[C@H](CCCCN)NC(=O)[C@H](CC(=O)O)NC(=O)[C@H](CCSC)NC(=O)[C@H](CC(C)C)NC(=O)[C@H](CO)NC(=O)[C@H](CO)NC(=O)[C@H](CS)NC(=O)[C@H](CO)NC(=O)[C@@H](N)CS)C(C)C)C(=O)N[C@@H](C)C(=O)N[C@@H](Cc1c[nH]c2ccccc12)C(=O)O [Endothelin-1 analogue]	9.4	7.53
CC[C@H](C)[C@H](NC(=O)[C@H](CC(=O)O)NC(=O)[C@H](CC(C)C)NC(=O)[C@H](Cc1cnc[nH]1)NC(=O)[C@H](CS)NC(=O)[C@H](Cc1ccccc1)NC(=O)[C@H](Cc1ccc(O)cc1)NC(=O)[C@@H](NC(=O)[C@H](CS)NC(=O)[C@H](CCC(=O)O)NC(=O)[C@H](CCCCN)NC(=O)[C@H](CC(=O)O)NC(=O)[C@H](CCSC)NC(=O)[C@H](CC(C)C)NC(=O)[C@H](CO)NC(=O)[C@H](CO)NC(=O)[C@H](CS)NC(=O)[C@H](CO)NC(=O)[C@@H](N)CS)C(C)C)C(=O)N[C@H](C(=O)N[C@@H](Cc1c[nH]c2ccccc12)C(=O)O)C1CCCCC1 [Endothelin-1 analogue]	10	9.88
